The test system of one assay is Hs27 cells. The assay can be described thus: GSH-Glo reduced glutathione content assay. The class given is cell-based, human. The conditions noted are these: Hs27, 1 μM XB05, 24 h. On the procedure:
(§1) FIG. 8: XB05 Modulates Cellular Stress Responses. (A) A luminescence-based assay for reduced glutathione (GSH) content in cells treated 24 h with XB05 (1 μM for U937 and Hs27, or 2 μM for A549), in the absence or presence of 5 mM GSH. Some cells were treated with buthionine sulfoximine (BSO, 200 μM) plus diethyl maleate (DEM, 1 mM) for 3 h as a positive control for GSH depletion. Bar graph indicates mean+/−SEM from three independent experiments. […] (C) Western blot for Nrf2 in nuclear extracts from cells treated as in part A for either 8 h or 24 h. Membranes were stripped and reprobed for Ku-70 as a loading control. (D) Western blot for phospho-eIF2α (Ser51), total eIF2-α, BiP/Grp78, and GAPDH (loading control) in whole cell extracts from cell lines treated as indicated for 24 h with concentrations of XB05 described in part A. Thapsigargin (TG, 2 μM) was used as a positive control for induction of endoplasmic reticulum (ER) stress.
(§2) Reduced Glutathione Content Analyses. After treatment as indicated in the figures and in the Brief Description of the Drawings, cells were harvested as described, counted and dispensed at a density of 10,000 cells/well in triplicate on a 96-well white, opaque bioluminescence plate (Corning). Cellular content of reduced glutathione (GSH) was analyzed using the GSH-Glo® Glutathione Assay Kit (Promega) according to the manufacturer's instructions. The chemiluminescent signal was quantified on a Biotek Synergy HT plate-reader (Biotek, Winooski, Vt.) using an integration time of 1 s/well.

Assay [1] concerns U937 cells. The assay can be described thus: GSH-Glo reduced glutathione content assay. It is filed as cell-based, human. The conditions noted are these: U937, 1 μM XB05, 24 h. The procedure:
as §1, §2

Assay [2] concerns A549 cells. Kind of assay: GSH-Glo reduced glutathione content assay. As to conditions: A549, 2 μM XB05, 24 h. The class given is cell-based, human. On the procedure:
as §1, §2

In assay [3] the test system is Hs27 non-malignant skin fibroblasts. The assay can be described thus: MTT cell proliferation assay. The class given is cell-based, human. As to conditions: Hs27, MTT 72 h. On the procedure:
(§3) Cell Proliferation Assays. The antiproliferative activity of XB05 was tested using a previously published 3-(4,5-dimethylthiazol-2-yl)-2,5-diphenyltetrazolium bromide (MTT) assay protocol (Girvan et al., “AGRO100 inhibits activation of nuclear factor-kappaB (NF-kappaB) by forming a complex with NF-kappaB essential modulator (NEMO) and nucleolin” Molecular Cancer Therapeutics (2006) Vol. 5, No. 7, pp. 1790-1799). Briefly, cells were seeded in quadruplicate wells in 96-well plates and allowed to adhere overnight. […] Plates were incubated with XB05 for 72 h, during which the cell culture medium was not changed. Cell viability was determined and the background corresponding to medium alone (no cells) was subtracted. Data were analyzed as described in the Brief Description of the Drawings.
(§4) XB05 has Cancer-Selective Antiproliferative Activity. XB05 was tested to determine its antiproliferative activity in a variety of human cell lines that are derived from malignant tissues or from non-malignant (immortalized but not transformed) cells and listed in FIG. 1B. As described in Materials and Methods, cells were treated with varying concentrations of XB05 for 72 h and evaluated using the MTT cell proliferation assay.

Assay [4] deals with U937 myeloid leukemia cells. Kind of assay: MTT cell proliferation assay. The class given is cell-based, human. The procedure:
as §3, §4

Assay [5] concerns A549 non-small cell lung cancer cells. The assay can be described thus: MTT cell proliferation assay. It is filed as cell-based, human. The conditions noted are these: A549, MTT 72 h. On the procedure:
as §3, §4

In another assay the test system is MDA-MB-231 cells. Kind of assay: MTT cell proliferation assay. The class given is cell-based. As to conditions: Homo sapiens, MDA-MB-231, 72 h. The procedure:
as §3, §4

A further assay concerns DU145 cells. The assay can be described thus: MTT cell proliferation assay. The class given is cell-based. As to conditions: Homo sapiens, DU-145; DU145, 72 h. On the procedure:
as §3, §4

The test system of assay [6] is U937 cells. Kind of assay: Western blot for PARP-1 and caspase-3 cleavage. The class given is cell-based, human. The conditions noted are these: U937, 1 μM XB05. The procedure:
(§5) FIG. 3: XB05 Induces Apoptotic and Nonapoptotic Cell Death in Malignant Cell Lines. (A) Trypan blue exclusion assay for three human cell lines following treatment with XB05 for 72 h at the concentrations indicated. Data points represent the mean+/−SEM for three independent experiments. (B) Representative phase contrast microscopy images of cells treated with vehicle (72 h), XB05 (72 h with 1 μM for U937 and Hs27, or 2 μM for A549), or 6 μg/mL camptothecin (U937 for 6 h, A549 and Hs27 for 48 h). Cells undergoing apoptotic (black arrows) or non-apoptotic (white arrows) cell death are indicated. (C) Whole cell extracts from cells treated with vehicle, camptothecin, or XB05, as described in part B were western blotted for biochemical markers of apoptosis and GAPDH (loading control). […]
(§6) Western Blotting. […] Proteins were detected using the following primary antibody concentrations: PARP-1 (1:1000), cleaved caspase-3 (1:1000), γ-H2AX (Ser139) ([…]), phospho-eIF2α (Ser51) (1:1000), eIF2α (1:1000), Bip (1:1000), Nrf2 (1:1000), Ku-70 (1:1000) and GAPDH (1:1000). […] Where indicated, band intensities were quantified using the UN-SCAN-IT Gel digitizing software (Silk Scientific, Orem Utah) and normalized to vehicle control.

In assay [7] the test system is A549 cells. The assay can be described thus: Western blot for PARP-1 and caspase-3 cleavage. It is filed as cell-based, human. As to conditions: A549, 2 μM XB05. The procedure:
as §5, §6

A further assay addresses recombinant human DNMT1 (Homo sapiens, UniProt P26358). The assay can be described thus: DNMT1 activity assay. The class given is biochemical. The conditions noted are these: recombinant human DNMT1 or nuclear extracts from treated cells. An excerpt: The assays use recombinant Human DNMT1 (FIG. 19A) or nuclear extracts prepared from cells treated with XB05 (BX11) or 5-Aza (5-azacytidine) (FIG. 19B).

recombinant human DNMT1, sequence (P26358 whole entry): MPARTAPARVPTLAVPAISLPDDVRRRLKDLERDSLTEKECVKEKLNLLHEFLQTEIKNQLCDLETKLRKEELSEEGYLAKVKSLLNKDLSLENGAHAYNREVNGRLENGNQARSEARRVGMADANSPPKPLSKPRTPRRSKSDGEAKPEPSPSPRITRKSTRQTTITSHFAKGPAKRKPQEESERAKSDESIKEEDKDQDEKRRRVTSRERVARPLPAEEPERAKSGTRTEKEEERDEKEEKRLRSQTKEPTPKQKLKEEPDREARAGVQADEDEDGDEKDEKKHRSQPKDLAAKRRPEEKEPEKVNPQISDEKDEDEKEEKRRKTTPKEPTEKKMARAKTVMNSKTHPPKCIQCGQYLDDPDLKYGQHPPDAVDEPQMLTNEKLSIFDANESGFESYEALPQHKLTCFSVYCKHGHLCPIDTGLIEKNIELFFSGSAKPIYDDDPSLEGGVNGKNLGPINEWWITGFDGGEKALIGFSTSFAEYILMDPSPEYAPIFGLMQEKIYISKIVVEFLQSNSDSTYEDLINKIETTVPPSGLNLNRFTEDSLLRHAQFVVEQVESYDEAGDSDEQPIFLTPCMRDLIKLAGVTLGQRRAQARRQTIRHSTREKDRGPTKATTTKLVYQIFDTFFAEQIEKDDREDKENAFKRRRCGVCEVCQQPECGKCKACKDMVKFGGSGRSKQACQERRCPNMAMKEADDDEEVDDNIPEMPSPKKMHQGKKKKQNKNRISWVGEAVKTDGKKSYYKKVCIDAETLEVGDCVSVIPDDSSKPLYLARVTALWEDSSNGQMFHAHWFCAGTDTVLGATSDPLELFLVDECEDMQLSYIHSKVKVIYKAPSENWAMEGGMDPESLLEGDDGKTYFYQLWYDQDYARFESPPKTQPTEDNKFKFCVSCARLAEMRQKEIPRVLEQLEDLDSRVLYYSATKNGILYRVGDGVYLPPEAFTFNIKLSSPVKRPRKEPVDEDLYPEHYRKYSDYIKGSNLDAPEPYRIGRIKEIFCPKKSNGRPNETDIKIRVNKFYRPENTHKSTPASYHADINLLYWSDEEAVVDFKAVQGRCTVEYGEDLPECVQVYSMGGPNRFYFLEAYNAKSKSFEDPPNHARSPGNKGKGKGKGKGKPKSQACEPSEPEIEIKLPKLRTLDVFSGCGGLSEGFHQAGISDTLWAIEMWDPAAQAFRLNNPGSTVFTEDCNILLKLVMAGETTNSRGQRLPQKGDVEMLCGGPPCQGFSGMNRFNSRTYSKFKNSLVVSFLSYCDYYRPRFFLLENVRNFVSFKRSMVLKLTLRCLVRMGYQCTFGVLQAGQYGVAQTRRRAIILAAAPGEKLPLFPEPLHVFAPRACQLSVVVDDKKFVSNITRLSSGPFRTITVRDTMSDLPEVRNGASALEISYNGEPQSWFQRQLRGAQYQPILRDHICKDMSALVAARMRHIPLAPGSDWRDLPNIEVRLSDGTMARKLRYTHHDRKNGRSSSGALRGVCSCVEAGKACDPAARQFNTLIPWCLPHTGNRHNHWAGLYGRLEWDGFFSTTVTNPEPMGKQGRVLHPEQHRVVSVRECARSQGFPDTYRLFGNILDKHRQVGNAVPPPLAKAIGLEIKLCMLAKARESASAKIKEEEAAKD

As to `CCCCCC(O)C#CC(F)(F)Br` (stereo not drawn) [XB05], the “increase in GSH” value in the assay with Hs27 cells is around 2 fold; in the assay with A549 cells [2], “approximately 1.3 fold”. Further, in the assay with U937 cells [1], the “change in reduced GSH” value is “depletion of reduced GSH”. Also, the “sensitivity to XB05” value in assay [3] is “low sensitivity”; in assay [4] (U937, MTT 72 h), “high sensitivity”; in assay [5] it was “moderate sensitivity”. Moreover, the GI50 in [4] (Homo sapiens, U-937, U937, 72 h) is below 500 nM; in the assay on MDA-MB-231 cells it was below 500 nM; with DU145 cells, below 500 nM. The figures for the “time at which PARP-1 and caspase-3 cleavage were apparent” value in the assay on U937 cells [6] and in the assay with A549 cells [7] were at most 24 h and 48 h, respectively. In addition, the “effect on DNMT1 activity” value at recombinant human DNMT1 is “inhibitory effects”.

Values taken from patent US9737493B2, “Compositions and methods for modulating DNMT1 inhibitor activity” (University of Louisville Research Foundation, Inc., priority 2012, dated 2017).
